Test results taken from ChEMBL document CHEMBL3585263, “Novel Octahydropyrrolo[3,4-c]pyrroles Are Selective Orexin-2 Antagonists: SAR Leading to a Clinical Candidate” (J Med Chem, 2015).
Values after ≈ are worked out from the molar mass of the structure shown. Values belong to the compound of their own block, whether it stands above or below them.

Key:
[1] = target: T1, Orexin/Hypocretin receptor type 1 (Homo sapiens, UniProt O43613); assay: Binding affinity to human OX1 receptor expressed in CHO cell membranes by scintillation counting analysis
T1 sequence (O43613 whole entry): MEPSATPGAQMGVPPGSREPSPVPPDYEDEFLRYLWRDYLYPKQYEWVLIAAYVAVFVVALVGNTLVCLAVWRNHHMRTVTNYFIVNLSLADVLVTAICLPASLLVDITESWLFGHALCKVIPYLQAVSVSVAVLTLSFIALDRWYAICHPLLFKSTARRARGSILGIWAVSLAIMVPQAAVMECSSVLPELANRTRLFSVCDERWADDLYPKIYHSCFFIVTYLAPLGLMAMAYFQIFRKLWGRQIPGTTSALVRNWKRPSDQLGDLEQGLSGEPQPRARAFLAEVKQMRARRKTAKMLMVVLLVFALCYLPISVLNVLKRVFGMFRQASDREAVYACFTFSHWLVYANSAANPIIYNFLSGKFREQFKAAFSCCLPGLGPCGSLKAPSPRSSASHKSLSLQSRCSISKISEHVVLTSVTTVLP

Orexin receptor type 2 [2] = target: T2, Orexin receptor type 2 (Homo sapiens, UniProt O43614); assay: Binding affinity to human OX2 receptor
T2 sequence (O43614 whole entry): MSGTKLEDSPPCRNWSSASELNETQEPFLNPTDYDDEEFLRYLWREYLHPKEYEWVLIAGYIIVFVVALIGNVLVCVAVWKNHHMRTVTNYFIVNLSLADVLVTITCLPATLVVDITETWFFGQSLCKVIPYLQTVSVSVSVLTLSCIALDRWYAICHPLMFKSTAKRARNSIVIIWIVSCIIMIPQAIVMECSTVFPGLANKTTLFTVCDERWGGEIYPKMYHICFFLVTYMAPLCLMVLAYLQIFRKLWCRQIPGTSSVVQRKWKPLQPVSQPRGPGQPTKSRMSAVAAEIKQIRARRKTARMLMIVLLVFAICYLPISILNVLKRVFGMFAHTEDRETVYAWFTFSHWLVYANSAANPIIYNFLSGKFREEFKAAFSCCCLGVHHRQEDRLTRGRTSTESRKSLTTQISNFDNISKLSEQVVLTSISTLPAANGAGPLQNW

[3] = target: T1, Orexin/Hypocretin receptor type 1; assay: Binding affinity to human OX1 receptor
Orexin receptor type 2 [4] = target: T2, Orexin receptor type 2; assay: Displacement of [3H]EMPA from human OX2 receptor expressed in human PFSK-1 cells; type: cell-based
Rattus norvegicus [5] = assay: Effect on REM sleep time in rat electroencephalographic model at 1 to 30 mg/kg, po administered at onset of dark phase measured for 2 hrs by telemetry device; type: ADME, organism-based; conditions: in vivo
[6] = Clearance in Sprague-Dawley rat at 10 mg/kg, po and 1 mg/kg, iv; type: ADME, organism-based; conditions: in vivo
[7] = Fraction unbound in mouse plasma at 0.1 to 10 uM after 6 hrs by equilibrium dialysis method; type: ADME, cell-free
[8] = Chemical stability of the compound assessed as compound remaining at 75% relative humidity at 40 degC after 4 weeks by HPLC analysis; type: physicochemical; conditions: read-out: Stability
[9] = Volume of distribution at steady state in Sprague-Dawley rat at 10 mg/kg, po and 1 mg/kg, iv; type: ADME, organism-based; conditions: in vivo, read-out: Vdss
Plasma [10] = assay: Fraction unbound in rat plasma at 0.1 to 10 uM after 6 hrs by equilibrium dialysis method; type: ADME, cell-free
[11] = Volume of distribution at steady state in cynomolgus monkey at 10 mg/kg, po and 1 mg/kg, iv; type: ADME, organism-based, Macaca fascicularis; conditions: in vivo, read-out: Vdss
[12] = Half life in cynomolgus monkey at 1 mg/kg, iv; type: ADME, organism-based, Macaca fascicularis; conditions: in vivo
[13] = Chemical stability of the compound in pH 4 acetate buffer assessed as compound remaining at 60 degC after 1 week by HPLC analysis; type: physicochemical; conditions: read-out: Stability
[14] = Physical stability of the compound at 75% relative humidity at 40 degC after 4 weeks by PXRD analysis; type: physicochemical; conditions: 672 h
[15] = Oral bioavailability in Balb/c mouse at 10 mg/kg; type: ADME, organism-based; conditions: in vivo
[16] = Clearance in cynomolgus monkey at 10 mg/kg, po and 1 mg/kg, iv; type: ADME, organism-based, Macaca fascicularis; conditions: in vivo
Rattus norvegicus [17] = assay: Reduction in NREM sleep latency in po dosed rat electroencephalographic model administered at onset of dark phase by telemetry device; type: functional, organism-based
[18] = Half life in Sprague-Dawley rat at 1 mg/kg, iv; type: ADME, organism-based; conditions: in vivo
[19] = Protein binding in rat brain at 5 uM after 5 hrs by equilibrium dialysis method; type: ADME, tissue-based; conditions: read-out: PB (converted)
Rattus norvegicus [20] = assay: Increase in NREM sleep time in po dosed rat electroencephalographic model administered at onset of dark phase measured for 2 hrs by telemetry device; type: functional, organism-based
[21] = Chemical stability of the compound in pH 10 carbonate buffer assessed as compound remaining at room temperature after 4 weeks by HPLC analysis; type: physicochemical; conditions: read-out: Stability
[22] = Chemical stability of the compound in pH 7.4 phosphate buffer assessed as compound remaining at 60 degC after 4 weeks by HPLC analysis; type: physicochemical; conditions: read-out: Stability
[23] = Clearance in beagle dog at 10 mg/kg, po and 1 mg/kg, iv; type: ADME, organism-based, Canis lupus familiaris; conditions: in vivo
Rattus norvegicus [24] = assay: Ex vivo OX2 receptor occupancy in po dosed Sprague-Dawley rat brain after 15 mins by autoradiographic analysis; type: functional, organism-based
Plasma [25] = assay: Plasma protein binding in human at 1 uM after 6 hrs by equilibrium dialysis method; type: ADME, cell-free; conditions: 6 h, 1 µM
Rattus norvegicus [26] = assay: Ex vivo OX2 receptor occupancy in Sprague-Dawley rat brain at 30 mg/kg, po after 15 mins by autoradiographic analysis; type: functional
[27] = Half life in beagle dog at 1 mg/kg, iv; type: ADME, organism-based, Canis lupus familiaris; conditions: in vivo
[28] = Chemical stability of the compound in pH 7.4 phosphate buffer assessed as compound remaining at room temperature after 1 week by HPLC analysis; type: physicochemical; conditions: read-out: Stability
[29] = Chemical stability of the compound in pH 2 phosphate buffer assessed as compound remaining at room temperature after 1 week by HPLC analysis; type: physicochemical; conditions: read-out: Stability
[30] = Chemical stability of the compound in pH 4 acetate buffer assessed as compound remaining at 60 degC after 4 weeks by HPLC analysis; type: physicochemical; conditions: read-out: Stability
[31] = Chemical stability of the compound in pH 4 acetate buffer assessed as compound remaining at room temperature after 1 week by HPLC analysis; type: physicochemical; conditions: read-out: Stability
[32] = Oral bioavailability in Sprague-Dawley rat at 10 mg/kg; type: ADME, organism-based; conditions: in vivo
[33] = Chemical stability of the compound assessed as compound remaining at ambient relative humidity at 22 degC after 4 weeks by HPLC analysis; type: physicochemical; conditions: read-out: Stability
[34] = Volume of distribution at steady state in beagle dog at 10 mg/kg, po and 1 mg/kg, iv; type: ADME, organism-based, Canis lupus familiaris; conditions: in vivo, read-out: Vdss
[35] = Chemical stability of the compound in pH 10 carbonate buffer assessed as compound remaining at 60 degC after 1 week by HPLC analysis; type: physicochemical; conditions: read-out: Stability
[36] = Fraction unbound in cynomolgus monkey plasma at 0.1 to 10 uM after 6 hrs by equilibrium dialysis method; type: ADME, cell-free, Macaca fascicularis
[37] = Chemical stability of the compound in pH 2 phosphate buffer assessed as compound remaining at 60 degC after 4 weeks by HPLC analysis; type: physicochemical; conditions: read-out: Stability
[38] = Chemical stability of the compound assessed as compound remaining at ambient relative humidity at 80 degC after 4 weeks by HPLC analysis; type: physicochemical; conditions: read-out: Stability
Plasma [39] = assay: Plasma protein binding in rat at 1 uM after 6 hrs by equilibrium dialysis method; type: ADME, cell-free; conditions: 6 h, 1 µM
Orexin receptor type 2 [40] = target: T3, Orexin receptor type 2 (Rattus norvegicus, UniProt P56719); assay: Binding affinity to rat OX2 receptor
T3 sequence (P56719 whole entry): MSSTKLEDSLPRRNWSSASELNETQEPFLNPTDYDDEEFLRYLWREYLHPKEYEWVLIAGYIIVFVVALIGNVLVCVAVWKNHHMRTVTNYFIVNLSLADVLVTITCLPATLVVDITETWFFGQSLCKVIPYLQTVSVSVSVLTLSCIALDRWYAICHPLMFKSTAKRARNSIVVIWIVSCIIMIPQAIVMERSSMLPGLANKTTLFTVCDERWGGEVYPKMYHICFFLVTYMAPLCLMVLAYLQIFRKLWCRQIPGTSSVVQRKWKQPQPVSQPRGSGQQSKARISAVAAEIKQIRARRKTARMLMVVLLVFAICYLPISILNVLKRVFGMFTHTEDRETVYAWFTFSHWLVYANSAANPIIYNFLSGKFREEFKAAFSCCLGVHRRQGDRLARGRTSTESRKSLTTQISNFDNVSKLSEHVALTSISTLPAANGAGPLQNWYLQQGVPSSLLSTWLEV

[41] = Oral bioavailability in cynomolgus monkey at 10 mg/kg; type: ADME, organism-based, Macaca fascicularis; conditions: in vivo
[42] = Physical stability of the compound at ambient relative humidity at 22 degC after 4 weeks by PXRD analysis; type: physicochemical; conditions: 672 h
Plasma [43] = assay: Fraction unbound in human plasma at 0.1 to 10 uM after 6 hrs by equilibrium dialysis method; type: ADME, cell-free
[44] = Oral bioavailability in beagle dog at 10 mg/kg; type: ADME, organism-based, Canis lupus familiaris; conditions: in vivo
[45] = Chemical stability of the compound in pH 10 carbonate buffer assessed as compound remaining at 60 degC after 4 weeks by HPLC analysis; type: physicochemical; conditions: read-out: Stability
[46] = Chemical stability of the compound in pH 7.4 phosphate buffer assessed as compound remaining at 60 degC after 1 week by HPLC analysis; type: physicochemical; conditions: read-out: Stability
[47] = Physical stability of the compound at ambient relative humidity at 80 degC after 4 weeks by PXRD analysis; type: physicochemical; conditions: 672 h
[48] = Chemical stability of the compound in pH 10 carbonate buffer assessed as compound remaining at room temperature after 1 week by HPLC analysis; type: physicochemical; conditions: read-out: Stability
[49] = Chemical stability of the compound in pH 2 phosphate buffer assessed as compound remaining at 60 degC after 1 week by HPLC analysis; type: physicochemical; conditions: read-out: Stability
[50] = Volume of distribution at steady state in Balb/c mouse at 10 mg/kg, po and 1 mg/kg, iv; type: ADME, organism-based; conditions: in vivo, read-out: Vdss
[51] = Chemical stability of the compound in pH 7.4 phosphate buffer assessed as compound remaining at room temperature after 4 weeks by HPLC analysis; type: physicochemical; conditions: read-out: Stability
[52] = Half life in Balb/c mouse at 1 mg/kg, iv; type: ADME, organism-based; conditions: in vivo
[53] = Fraction unbound in beagle dog plasma at 0.1 to 10 uM after 6 hrs by equilibrium dialysis method; type: ADME, cell-free, Canis lupus familiaris
[54] = Chemical stability of the compound in pH 2 phosphate buffer assessed as compound remaining at room temperature after 4 weeks by HPLC analysis; type: physicochemical; conditions: read-out: Stability
[55] = Chemical stability of the compound in pH 4 acetate buffer assessed as compound remaining at room temperature after 4 weeks by HPLC analysis; type: physicochemical; conditions: read-out: Stability
[56] = Clearance in Balb/c mouse at 10 mg/kg, po and 1 mg/kg, iv; type: ADME, organism-based; conditions: in vivo

Ki [1]: 216 nM
Compound: COc1cccc(OC)c1C(=O)N1CCCN(c2nc3ccc(Cl)cc3s2)CC1

Ki (Orexin receptor type 2 [2]): 2200 nM
Ki [3]: 6850 nM
Ki (Orexin receptor type 2 [4]): 1600 nM
Compound: COc1cccc(OC)c1C(=O)N1C[C@@H]2CN(c3nc4ccc(Cl)cc4s3)C[C@@H]2C1

clearance [6]: 40 mL/min/kg
fraction unbound at 6 h [7]: 0.041
remaining at 672 h [8]: 100%
Vd [9]: 0.7 L/kg
Fu (Plasma [10]): 5.6%
Vd [11]: 0.4 L/kg
half-life [12]: 24 min
remaining at 168 h [13]: 99.4%
Stability [14]: Stable
bioavailability [15]: 16%
clearance [16]: 16 mL/min/kg
half-life [18]: 18 min
fraction unbound at 5 h, 5 µM [19]: 0.119
remaining at 672 h [21]: 102%
remaining at 672 h [22]: 99.8%
clearance [23]: 9.8 mL/min/kg
EC50 (Rattus norvegicus [24]): 0.171 µg/mL (≈ 0.42 µM)
Occ (Rattus norvegicus [24]): Dose-dependent effect
PPB (Plasma [25]): 95.9%
half-life [27]: 66 min
remaining at 168 h [28]: 101%
remaining at 168 h [29]: 100%
remaining at 672 h [30]: 102%
remaining at 168 h [31]: 99.7%
bioavailability [32]: 24%
remaining at 672 h [33]: 100%
Vd [34]: 0.7 L/kg
remaining at 168 h [35]: 102%
fraction unbound at 6 h [36]: 0.044
remaining at 672 h [37]: 101%
remaining at 672 h [38]: 100%
PPB (Plasma [39]): 92.7%
Ki (Orexin receptor type 2 [40]): 10 nM
bioavailability [41]: 6%
Stability [42]: Stable
Fu (Plasma [43]): 2.9%
bioavailability [44]: 19%
remaining at 672 h [45]: 102%
remaining at 168 h [46]: 102%
Stability [47]: Stable
remaining at 168 h [48]: 101%
remaining at 168 h [49]: 101%
Vd [50]: 0.6 L/kg
remaining at 672 h [51]: 103%
half-life [52]: 12 min
fraction unbound at 6 h [53]: 0.096
remaining at 672 h [54]: 102%
remaining at 672 h [55]: 101%
clearance [56]: 36 mL/min/kg
Compound: Cc1cc(C)nc(N2C[C@H]3CN(C(=O)c4c(F)cccc4-n4nccn4)C[C@H]3C2)n1 [SELTOREXANT]
Activity (Rattus norvegicus [5]): Non-toxic
Activity (Rattus norvegicus [17]): Dose-dependent effect
Activity (Rattus norvegicus [20]): Dose-dependent effect
ED50 (Rattus norvegicus [24]; po): 3 mg/kg
Occ (Rattus norvegicus [26]): 71%
